Test results published in PubChem BioAssay (NCI).
“And” between values parts separate entries of the source, which are not always exact repeats. Identical values can stand only once.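 Assay format: 96-well plates, 48-hour exposure. The concentration for 50% growth inhibition is given as GI50. TGI marks complete inhibition of growth.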

How the values were obtained:
Test in all cases: NCI tumour cell line growth inhibition, 48 h
[1] = test system: DU-145 prostate
[2] = test system: A498 renal
[3] = test system: 786-0 renal
[4] = test system: SK-OV-3 ovarian
[5] = test system: RPMI-8226 leukemia
[6] = test system: TK-10 renal
[7] = test system: SF-539 CNS
[8] = test system: NCI/ADR-RES ovarian
[9] = test system: ACHN renal
[10] = test system: HOP-92 NSCLC
[11] = test system: SNB-19 CNS
[12] = test system: SK-MEL-28 melanoma
[13] = test system: MDA-MB-231 breast
[14] = test system: A549 NSCLC
[15] = test system: OVCAR-5 ovarian
[16] = test system: UO-31 renal
[17] = test system: UACC-257 melanoma
[18] = test system: OVCAR-8 ovarian
[19] = test system: CCRF-CEM leukemia
[20] = test system: OVCAR-3 ovarian
[21] = test system: SW-620 colon
[22] = test system: SF-268 CNS
[23] = test system: KM12 colon
[24] = test system: U251 CNS
[25] = test system: RXF 393 renal
[26] = test system: HS 578T breast
[27] = test system: SNB-75 CNS
[28] = test system: HOP-62 NSCLC
[29] = test system: NCI-H460 lung
[30] = test system: MOLT-4 leukemia
[31] = test system: PC-3 prostate
[32] = test system: COLO 205 colon
[33] = test system: NCI-H226 lung
[34] = test system: HCT-116 colon
[35] = test system: HL-60(TB) leukemia
[36] = test system: IGROV1 ovarian
[37] = test system: SK-MEL-2 melanoma
[38] = test system: NCI-H23 lung
[39] = test system: MALME-3M melanoma
[40] = test system: M14 melanoma
[41] = test system: SR leukemia
[42] = test system: HCT-15 colon

Cc1n(Cc2ccc3ccccc3c2)c2ccccc2[n+]1Cc1ccc2ccccc2c1
GI50 [1]: 1630 nM | TGI [1]: 3040 nM | GI50 [2]: 1350 nM | TGI [2]: 2880 nM | GI50 [3]: 1750 nM | TGI [3]: 3320 nM | GI50 [4]: 1650 nM | TGI [4]: 3110 nM | GI50 [5]: 29.1 nM | TGI [5]: 1480 nM | GI50 [6]: 1550 nM | TGI [6]: 3030 nM | GI50 [7]: 1530 nM | TGI [7]: 2910 nM | GI50 [8]: 19200 nM | TGI [8]: 87600 nM | GI50 [9]: 2460 nM | TGI [9]: 6490 nM | GI50 [10]: 31.7 nM | TGI [10]: 2060 nM | GI50 [11]: 1350 nM | TGI [11]: 2770 nM | GI50 [12]: 1540 nM | TGI [12]: 3180 nM | GI50 [13]: 1330 nM | TGI [13]: 2710 nM | GI50 [14]: 1760 nM | TGI [14]: 3400 nM | GI50 [15]: 1420 nM | TGI [15]: 2820 nM | GI50 [16]: 1500 nM | TGI [16]: 2870 nM | GI50 [17]: 1240 nM | TGI [17]: 2790 nM

C/C(=C\C(=N\N=C(N)N)c1ccc(Cl)cc1)c1ccc(Cl)cc1
GI50 [1]: 146 nM | TGI [1]: 1500 nM | GI50 [18]: 1180 nM | TGI [18]: 2900 nM | GI50 [19]: 112 nM | TGI [19]: 1940 nM | GI50 [4]: 1690 nM | TGI [4]: 3080 nM | GI50 [20]: 1720 nM | TGI [20]: 3210 nM | GI50 [21]: 470 nM | TGI [21]: 1730 nM | GI50 [22]: 1370 nM | TGI [22]: 3060 nM | GI50 [5]: 2190 nM | TGI [5]: 5140 nM | GI50 [23]: 1350 nM | TGI [23]: 2690 nM | GI50 [24]: 924 nM | TGI [24]: 2140 nM | GI50 [25]: 1710 nM | TGI [25]: 3100 nM | GI50 [26]: 2080 nM | TGI [26]: 4550 nM | GI50 [9]: 42.4 nM | TGI [9]: 1510 nM | GI50 [10]: 918 nM | TGI [10]: 2310 nM | GI50 [27]: 1480 nM | TGI [27]: 2910 nM | GI50 [28]: 45.4 nM | TGI [28]: 1620 nM | GI50 [29]: 1300 nM | TGI [29]: 2660 nM | GI50 [30]: 276 nM | TGI [30]: 950 nM | GI50 [31]: 1290 nM | TGI [31]: 2690 nM | GI50 [32]: 19.8 nM | TGI [32]: 34.3 nM | GI50 [33]: 2170 nM | TGI [33]: 4750 nM | GI50 [14]: 424 nM | TGI [14]: 1560 nM | GI50 [34]: 251 nM | TGI [34]: 712 nM | GI50 [35]: 2030 nM | TGI [35]: 3780 nM | GI50 [16]: 1440 nM | TGI [16]: 2850 nM

C/C=C/C[C@@H](C)C(=O)C1C(=O)N[C@@H](C(C)C)C(=O)N(C)CC(=O)N(C)[C@@H](CC(C)C)C(=O)N[C@@H](C(C)C)C(=O)N(C)[C@@H](CC(C)C)C(=O)N[C@@H](C)C(=O)N[C@@H](C)C(=O)N(C)[C@@H](CC(C)C)C(=O)N(C)[C@@H](CC(C)C)C(=O)N(C)[C@@H](C(C)C)C(=O)N1C (some centres not stated)
GI50 [36]: 20800 nM | TGI [36]: 65600 nM | GI50 [2]: 50400 nM | TGI [2]: 71500 nM | GI50 [37]: 40800 nM | TGI [37]: 76300 nM | GI50 [38]: 47000 nM | TGI [38]: > 20500 nM | GI50 [39]: 75800 nM | TGI [10]: > 20500 nM | GI50 [33]: 45300 nM | TGI [33]: 18400 nM and 83200 nM | GI50 [17]: 45500 nM | TGI [17]: > 20500 nM and 67000 nM

COc1ccc2nc3cc(Cl)ccc3c(N)c2c1
GI50 [40]: 1940 nM | TGI [40]: 3710 nM | GI50 [26]: 2860 nM | TGI [26]: > 100000 nM | GI50 [41]: 236 nM | TGI [41]: 591 nM | GI50 [42]: 713 nM | TGI [42]: 2970 nM | GI50 [12]: 2010 nM | TGI [12]: 3510 nM | GI50 [15]: 2090 nM | TGI [15]: 3660 nM | GI50 [17]: 1930 nM | TGI [17]: 3480 nM
